≈ marks a conversion by molar mass, not a printed value. Starred links: 1 amine or outer side, 2 acyl side, 3 side chain; linkers in the order of their positions; H or OH if unused. Positions of bridges follow the written chain, without caps; N, C: chain ends. Non-standard residues stand in square brackets, D forms with d. Residues, ends and D or L forms follow the SMILES beside them. ξ: configuration not given here. *: point of attachment. X2 = N=C1NCCC([C@H](N[*:1])C(=O)[*:2])N1; ΔAla(Z-3-ureido) = NC(=O)N/C=C(\N)C(=O)O; ξβ3hOrn = NCCCC(N)CC(=O)*; Dap = NC[C@H](N)C(=O)O
Key:
[1] = system: Mycobacterium tuberculosis; test: Antimycobacterial activity against Mycobacterium tuberculosis Rv3790 harbouring DprE1 gene; format: functional
[2] = system: Mycobacterium tuberculosis; test: Antimycobacterial activity against Mycobacterium tuberculosis harbouring fdxA gene; format: functional
[3] = system: Mycobacterium tuberculosis; test: Antimycobacterial activity against Mycobacterium tuberculosis harbouring katG gene; format: functional
[4] = system: Mycobacterium tuberculosis; test: Antimycobacterial activity against Mycobacterium tuberculosis Rv1302 harbouring rfe gene; format: functional
[5] = system: Mycobacterium tuberculosis; test: Antimycobacterial activity against Mycobacterium tuberculosis Rv1302 harbouring wecA gene; format: functional
[6] = system: Mycobacterium tuberculosis; test: Antimycobacterial activity against Mycobacterium tuberculosis Rv2156c harbouring mraY gene; format: functional
[7] = system: Mycobacterium tuberculosis; test: Antimycobacterial activity against Mycobacterium tuberculosis harbouring rrs gene; format: functional
[8] = system: Mycobacterium tuberculosis; test: Antimycobacterial activity against rifampicin-resistant Mycobacterium tuberculosis; format: functional
[9] = system: Mycobacterium tuberculosis; test: Antimycobacterial activity against Mycobacterium tuberculosis 000019 harbouring rrs gene; format: functional
[10] = system: Mycobacterium tuberculosis; test: Antimycobacterial activity against Mycobacterium tuberculosis harbouring thyA gene; format: functional
[11] = system: Mycobacterium tuberculosis; test: Antimycobacterial activity against Mycobacterium tuberculosis Rv0503c harbouring cmaA2 gene; format: functional
[12] = system: Mycobacterium tuberculosis; test: Antimycobacterial activity against Mycobacterium tuberculosis Rv2068c harbouring blaC gene; format: functional
[13] = system: Mycobacterium tuberculosis; test: Antimycobacterial activity against Mycobacterium tuberculosis Rv0050 harbouring ponA1 gene; format: functional
[14] = system: Mycobacterium tuberculosis; test: Antimycobacterial activity against drug-resistant Mycobacterium tuberculosis; format: functional
[15] = system: Mycobacterium tuberculosis; test: Antimycobacterial activity against Mycobacterium tuberculosis Rv1305 harbouring atpE gene; format: functional
[16] = system: Mycobacterium tuberculosis; test: Antimycobacterial activity against multi-drug resistant Mycobacterium tuberculosis clinical isolates; format: functional
[17] = system: Mycobacterium tuberculosis; test: Antimycobacterial activity against extensively drug resistant Mycobacterium tuberculosis clinical isolates; format: functional
[18] = system: Mycobacterium tuberculosis; test: Antimycobacterial activity against Mycobacterium tuberculosis Rv2163c harbouring ftsI gene; format: functional
[19] = system: Mycobacterium tuberculosis; test: Antimycobacterial activity against Mycobacterium tuberculosis Rv2163c harbouring pbpB gene; format: functional
[20] = system: Mycobacterium tuberculosis; test: Antimycobacterial activity against Mycobacterium tuberculosis Rv0006 harbouring gyrA gene; format: functional
[21] = system: Mycobacterium tuberculosis; test: Antimycobacterial activity against Mycobacterium tuberculosis Rv0005 harbouring gyrB gene; format: functional
[22] = system: Mycobacterium tuberculosis; test: Antimycobacterial activity against Mycobacterium tuberculosis Rv0706 harbouring rplV gene; format: functional
[23] = system: Mycobacterium tuberculosis; test: Antimycobacterial activity against Mycobacterium tuberculosis harbouring embCAB gene; format: functional
[24] = system: Mycobacterium tuberculosis; test: microbe, parasite or virus in culture

## CCOC(=O)NC(=O)c1ccsc1NC(=O)c1nc2ccccc2s1
[1]
  MIC: 0.01 µg/mL (≈ 0.0266 µM)
[2]
  MIC: 0.01 µg/mL (≈ 0.0266 µM)
[3]
  MIC: 0.01 µg/mL (≈ 0.0266 µM)

## CCCCc1ccc(NC(=O)C2=CCN(C)[C@@H]([C@H](O[C@@H]3O[C@H](CN)[C@@H](O)[C@H]3O)[C@H]3O[C@@H](n4ccc(=O)[nH]c4=O)[C@H](O)[C@@H]3O)C(=O)N2C)cc1
[4]
  MIC: 1.56 µg/mL (≈ 2.27 µM)
[5]
  MIC: 1.56 µg/mL (≈ 2.27 µM)

## CCCCCCCCCC(=O)O[C@H]1[C@@H](OC)[C@H]([C@H](O[C@@H]2OC(C(=O)N[C@@H]3CCC[C@H](C)NC3=O)=C[C@@H](O)[C@H]2O)[C@H](N)O)O[C@@H]1n1ccc(=O)[nH]c1=O
[6]
  MIC: 0.12 µg/mL (≈ 0.162 µM)

## N=C1NCCC([C@@H]2NC(=O)/C(=C/NC(N)=O)NC(=O)[C@H](CNC(=O)CC(N)CCCN)NC(=O)[C@H](CO)NC(=O)[C@@H](N)CNC2=O)N1 (stereo partly drawn) (H-[Dap]S[Dap](ξβ3hOrn)[ΔAla(Z-3-ureido)][X2]; lactam 1-C)
[7]
  MIC: 1.25 µg/mL (≈ 1.87 µM)

## COc1ccc2c3c(c4cc(OC)c(OC)cc4c2c1)CN1CCCC1C3 (stereo not drawn) [(+/-)-DEOXYTYLOPHORININE]
[8]
  MIC: 6.25 µg/mL (≈ 17.2 µM)

## NCC[C@H](O)C(=O)N[C@@H]1C[C@H](N)[C@@H](O[C@H]2O[C@H](CN)[C@@H](O)[C@H](O)[C@H]2O)[C@H](O)[C@H]1O[C@H]1O[C@H](CO)[C@@H](O)[C@H](N)[C@H]1O [AMIKACIN]
[9]
  MIC: 0.12 µg/mL (≈ 0.205 µM)

## Nc1ccc(C(=O)O)c(O)c1 [AMINOSALICYLIC ACID]
[10]
  MIC: 1 µg/mL (≈ 6.53 µM)

## CC(=O)Nc1ccc(/C=N/NC(N)=S)cc1 [AMITHIOZONE]
[11]
  MIC: 0.1 µg/mL (≈ 0.423 µM)

## CC1(C)S[C@@H]2[C@H](NC(=O)[C@H](N)c3ccc(O)cc3)C(=O)N2[C@H]1C(=O)O [AMOXICILLIN]
[12]
  MIC: 10 µg/mL
[13]
  MIC: 10 µg/mL

## COc1nc2ccc(Br)cc2cc1[C@@H](c1ccccc1)[C@@](O)(CCN(C)C)c1cccc2ccccc12 [BEDAQUILINE]
[14]
  MIC: 60 µg/mL (≈ 108 µM)
[15]
  MIC: 0.063 µg/mL (≈ 0.113 µM)

## C[C@H]1COC2(CCN(c3nc(=O)c4cc(C(F)(F)F)cc([N+](=O)[O-])c4s3)CC2)O1 [BTZ-043]
[16]
  MIC: 0.0001 µg/mL (≈ 0.000232 µM)
[1]
  MIC: 0.001 µg/mL (≈ 0.00232 µM)
[17]
  MIC: 0.001 µg/mL (≈ 0.00232 µM)

## CC1(C)C[C@@H]1C(=O)N/C(=C\CCCCSC[C@H](N)C(=O)O)C(=O)O [CILASTATIN]
[18]
  MIC: 0.16 µg/mL (≈ 0.446 µM)
[19]
  MIC: 0.16 µg/mL

## O=C(O)c1cn(C2CC2)c2cc(N3CCNCC3)c(F)cc2c1=O [CIPROFLOXACIN]
[20]
  MIC: 0.125 µg/mL (≈ 0.377 µM)
[21]
  MIC: 0.125 µg/mL (≈ 0.377 µM)

## CC[C@H]1OC(=O)[C@H](C)[C@@H](O[C@H]2C[C@@](C)(OC)[C@@H](O)[C@H](C)O2)[C@H](C)[C@@H](O[C@@H]2O[C@H](C)C[C@H](N(C)C)[C@H]2O)[C@](C)(OC)C[C@@H](C)C(=O)[C@H](C)[C@@H](O)[C@]1(C)O [CLARITHROMYCIN]
[22]
  MIC: 1 µg/mL (≈ 1.34 µM)

## O=C(O)[C@H]1/C(=C/CO)O[C@@H]2CC(=O)N21 [CLAVULANIC ACID]
[19]
  MIC: 0.23 µM
[12]
  MIC: 0.23 µM
[13]
  MIC: 0.23 µM

## CC[C@@H](CO)NCCN[C@@H](CC)CO [ETHAMBUTOL]
[23]
  MIC: 1 µg/mL (≈ 4.89 µM)

## CCc1cc(C(N)=S)ccn1 [ETHIONAMIDE]
[24]
  MIC: 0.6 µg/mL (≈ 3.61 µM)

## COc1c(N2CCNC(C)C2)c(F)cc2c(=O)c(C(=O)O)cn(C3CC3)c12 (stereo not given) [GATIFLOXACIN]
[20]
  MIC: 1 µg/mL (≈ 2.66 µM)
[21]
  MIC: 1 µg/mL (≈ 2.66 µM)
